According to ChEMBL document CHEMBL1201862, “PubChem BioAssay data set” (2004):
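96-well plates; 48 h exposure; 5 concentrations. Endpoints by linear interpolation between flanking doses. Not reached: highest tested concentration assigned. GI50: concentration for 50% inhibition of growth.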 Calls of active or inactive are those of the source. Rule as the data show it: active = GI50 up to about 1.1 µM and inactive = higher. Square brackets hold non-standard residues; d marks the D form. Peptide text beside a SMILES is read from it. * marks the point of attachment. Phe(4-NO2) = N[CH](Cc1ccc([N+](=O)[O-])cc1)C(=O)O; Boc = CC(C)(C)OC(=O)*

Columns and labels:
Assay in all cases: NCI tumour cell line growth inhibition, 48 h
RXF 393 = test system: RXF 393
SNB-19 = test system: SNB-19
NCI/ADR-RES = test system: NCI/ADR-RES
Malme-3M = test system: Malme-3M
MDA-MB-435 = test system: MDA-MB-435
UACC-257 = test system: UACC-257
SK-OV-3 = test system: SK-OV-3
RPMI-8226 = test system: RPMI-8226
CCRF-CEM = test system: CCRF-CEM
CAKI-1 = test system: CAKI-1
HOP-92 = test system: HOP-92
OVCAR-4 = test system: OVCAR-4
KM12 = test system: KM12
LOX IMVI = test system: LOX IMVI
COLO 205 = test system: COLO 205
MDA-N = test system: MDA-N
786-0 = test system: 786-0
T47D = test system: T47D
HCC 2998 = test system: HCC 2998

Measured: GI50

CCN1CCC(O)(c2ccc(Oc3ccc(Cl)cc3)cc2)C(C(=O)c2ccc(Oc3ccc(Cl)cc3)cc2)C1 (centres undefined)
inactive: RXF 393 26.2 µM | SNB-19 14.5 µM | NCI/ADR-RES 17.3 µM | Malme-3M 17.2 µM | MDA-MB-435 16.4 µM | UACC-257 13.3 µM | SK-OV-3 23.3 µM | RPMI-8226 3.37 µM | CCRF-CEM 3.44 µM | CAKI-1 14.3 µM | HOP-92 7.16 µM | OVCAR-4 14.3 µM | KM12 2.56 µM | LOX IMVI 3.78 µM | COLO 205 13.2 µM | MDA-N 14 µM | 786-0 3.55 µM | T47D 14.7 µM | HCC 2998 12.5 µM

O=CCCCCCOCc1ccccc1
inactive: RXF 393 > 100 µM | SNB-19 > 87.1 µM | NCI/ADR-RES > 55.8 µM | Malme-3M > 67.1 µM | MDA-MB-435 > 100 µM | UACC-257 > 60.8 µM | SK-OV-3 > 100 µM | RPMI-8226 25.1 µM | CCRF-CEM 28 µM | CAKI-1 > 45.8 µM | HOP-92 > 100 µM | OVCAR-4 > 87.5 µM | KM12 54.3 µM | LOX IMVI 18.3 µM | COLO 205 > 100 µM | MDA-N > 100 µM | 786-0 23.8 µM | T47D > 100 µM | HCC 2998 > 100 µM

COc1cccc2c1C(=O)C(=O)c1c-2oc(=O)c2cc(C)cc(OC)c12
inactive: RXF 393 19.1 µM | SNB-19 37.8 µM | NCI/ADR-RES 15.8 µM | Malme-3M 26.9 µM | MDA-MB-435 14.2 µM | UACC-257 14.9 µM | SK-OV-3 58.5 µM | RPMI-8226 20.6 µM | CCRF-CEM 17.5 µM | CAKI-1 67.5 µM | HOP-92 59.2 µM | OVCAR-4 14.9 µM | KM12 21.1 µM | LOX IMVI 13.6 µM | COLO 205 67 µM | MDA-N 17.5 µM | 786-0 26.2 µM | T47D 29.9 µM | HCC 2998 14.5 µM

O=c1c2ccccc2c2ccccc2c(=O)n1-c1cc2c3ccccc3ccc2c2ccccc12
inactive: RXF 393 > 100 µM | SNB-19 > 100 µM | NCI/ADR-RES > 100 µM | Malme-3M > 100 µM | MDA-MB-435 > 100 µM | UACC-257 > 100 µM | SK-OV-3 > 100 µM | RPMI-8226 60.3 µM | CAKI-1 > 100 µM | HOP-92 > 100 µM | OVCAR-4 > 100 µM | KM12 > 100 µM | LOX IMVI > 100 µM | COLO 205 > 100 µM | MDA-N > 100 µM | 786-0 > 100 µM | T47D > 100 µM | HCC 2998 22.3 µM

OCCCCn1cc(Cn2ncc3c(SCc4ccccc4)ncnc32)nn1
inactive: RXF 393 64.9 µM | SNB-19 65.5 µM | NCI/ADR-RES 21.6 µM | Malme-3M > 100 µM | MDA-MB-435 19.9 µM | UACC-257 49.4 µM | SK-OV-3 89.1 µM | RPMI-8226 40.9 µM | CCRF-CEM 45.5 µM | CAKI-1 31 µM | HOP-92 > 100 µM | OVCAR-4 28.9 µM | KM12 26 µM | LOX IMVI 72.4 µM | COLO 205 31 µM | MDA-N 15.7 µM | 786-0 63.4 µM | T47D 32.2 µM | HCC 2998 56.4 µM

C=C1c2cc3c(cc2CC12Cc1cc4c(cc1C2=O)CCC4)CCC3 (centres undefined)
inactive: RXF 393 > 100 µM | SNB-19 > 100 µM | NCI/ADR-RES > 100 µM | Malme-3M > 100 µM | MDA-MB-435 > 100 µM | UACC-257 > 100 µM | SK-OV-3 > 100 µM | RPMI-8226 > 100 µM | CCRF-CEM > 100 µM | CAKI-1 > 100 µM | HOP-92 > 100 µM | OVCAR-4 > 100 µM | LOX IMVI > 100 µM | MDA-N > 100 µM | 786-0 > 100 µM | T47D > 100 µM | HCC 2998 > 100 µM

Cc1cccc(/N=N/c2c(C)nn(C(=O)CC(=O)Nc3ccccc3)c2C)c1
inactive: RXF 393 > 100 µM | SNB-19 > 100 µM | NCI/ADR-RES > 100 µM | Malme-3M > 100 µM | MDA-MB-435 > 100 µM | UACC-257 > 10 µM | SK-OV-3 > 100 µM | RPMI-8226 > 100 µM | CCRF-CEM > 100 µM | CAKI-1 > 100 µM | HOP-92 > 100 µM | OVCAR-4 > 100 µM | KM12 > 100 µM | LOX IMVI > 100 µM | COLO 205 > 100 µM | MDA-N > 100 µM | 786-0 > 100 µM | T47D > 100 µM | HCC 2998 > 100 µM

O=C(CCCCCCCCC(=O)N1C(=O)CC(=O)N(c2ccccc2)C1=S)N1C(=O)CC(=O)N(c2ccccc2)C1=S
inactive: RXF 393 > 100 µM | SNB-19 > 100 µM | NCI/ADR-RES > 100 µM | Malme-3M > 100 µM | MDA-MB-435 > 100 µM | UACC-257 > 100 µM | SK-OV-3 > 100 µM | RPMI-8226 > 100 µM | CCRF-CEM > 100 µM | CAKI-1 > 100 µM | HOP-92 > 100 µM | OVCAR-4 > 100 µM | KM12 > 100 µM | LOX IMVI > 100 µM | COLO 205 > 100 µM | MDA-N > 100 µM | 786-0 > 100 µM | T47D > 100 µM | HCC 2998 > 100 µM

O=C1c2ccccc2C(=O)N1c1ccc(OCCN2CCCCC2)cc1
inactive: RXF 393 > 100 µM | SNB-19 > 100 µM | NCI/ADR-RES > 100 µM | Malme-3M > 100 µM | MDA-MB-435 > 100 µM | UACC-257 > 100 µM | SK-OV-3 > 100 µM | RPMI-8226 > 100 µM | CCRF-CEM > 100 µM | CAKI-1 > 100 µM | HOP-92 > 100 µM | OVCAR-4 > 100 µM | KM12 > 100 µM | LOX IMVI > 100 µM | COLO 205 > 100 µM | MDA-N > 100 µM | 786-0 > 100 µM | T47D > 100 µM | HCC 2998 > 100 µM

O=[N+]([O-])C(=C1NCCN1)/C(Cl)=C(\Cl)Br
inactive: RXF 393 14.1 µM | SNB-19 > 100 µM | NCI/ADR-RES > 63.1 µM | Malme-3M 36.9 µM | MDA-MB-435 29.4 µM | UACC-257 > 49.8 µM | SK-OV-3 > 100 µM | RPMI-8226 22.4 µM | CCRF-CEM 7.1 µM | CAKI-1 16.3 µM | HOP-92 34.4 µM | OVCAR-4 46.5 µM | KM12 > 100 µM | LOX IMVI 15.7 µM | COLO 205 19.6 µM | MDA-N 34.5 µM | 786-0 17.6 µM | T47D 17.5 µM | HCC 2998 60 µM

CC1(C)C(=O)C2(C#N)CCC1C2 (centres undefined)
inactive: RXF 393 > 100 µM | SNB-19 > 100 µM | NCI/ADR-RES > 100 µM | Malme-3M > 100 µM | MDA-MB-435 > 100 µM | UACC-257 > 100 µM | SK-OV-3 > 100 µM | RPMI-8226 > 76.9 µM | CCRF-CEM > 100 µM | CAKI-1 > 100 µM | HOP-92 > 100 µM | OVCAR-4 > 100 µM | KM12 > 100 µM | LOX IMVI > 100 µM | COLO 205 > 100 µM | MDA-N > 100 µM | 786-0 > 100 µM | T47D > 100 µM | HCC 2998 > 100 µM

CNC(=O)CCC(NC(=O)OC(C)(C)C)C(=O)NC(Cc1ccc([N+](=O)[O-])cc1)C(=O)NCC(=O)NC (centres undefined) (Boc-Glu(NHMe)-[Phe(4-NO2)]-Gly-NHMe; configuration not given here)
inactive: RXF 393 > 100 µM | SNB-19 > 100 µM | NCI/ADR-RES > 100 µM | Malme-3M > 100 µM | MDA-MB-435 > 100 µM | SK-OV-3 > 100 µM | RPMI-8226 > 100 µM | CAKI-1 > 100 µM | HOP-92 > 100 µM | OVCAR-4 > 100 µM | KM12 > 100 µM | LOX IMVI > 100 µM | COLO 205 > 100 µM | MDA-N > 100 µM | 786-0 > 100 µM | T47D > 100 µM | HCC 2998 > 100 µM

COC1/C=C\OC2(C)Oc3c(C)c(O)c4c(O)c(c(CN(C)C)c(O)c4c3C2=O)NC(=O)/C(C)=C\C=C/C(C)C(O)C(C)C(O)C(C)C(OC(C)=O)C1C (centres undefined)
inactive: RXF 393 37.8 µM | SNB-19 42.9 µM | NCI/ADR-RES > 100 µM | Malme-3M 19.3 µM | MDA-MB-435 26.4 µM | UACC-257 22.4 µM | SK-OV-3 > 100 µM | RPMI-8226 6.5 µM | CAKI-1 57.1 µM | HOP-92 45 µM | OVCAR-4 36.6 µM | KM12 33.7 µM | LOX IMVI 17.6 µM | COLO 205 17.5 µM | MDA-N 30.6 µM | 786-0 27.4 µM | T47D 29 µM | HCC 2998 20.5 µM

N/N=C1\C(OC(=O)Nc2ccccc2)=Nc2ccccc21
inactive: RXF 393 15.4 µM | SNB-19 26.8 µM | NCI/ADR-RES 30.3 µM | Malme-3M 13.2 µM | MDA-MB-435 14.4 µM | UACC-257 29.7 µM | SK-OV-3 19.8 µM | RPMI-8226 10.3 µM | CAKI-1 14.9 µM | HOP-92 15.2 µM | OVCAR-4 12.8 µM | KM12 13.1 µM | LOX IMVI 14.5 µM | COLO 205 17.3 µM | MDA-N 19.1 µM | 786-0 16.4 µM | T47D 10.9 µM | HCC 2998 15.3 µM
